# Test results reported in ChEMBL document CHEMBL4219265, “Piperlongumine derivative, CG-06, inhibits STAT3 activity by direct binding to STAT3 and regulating the reactive oxygen species in DU145 prostate carcinoma cells” (Bioorg Med Chem Lett, 2018).
# Key:
# [1] = system: PC-3; test: Growth inhibition of human PC3 cells after 48 hrs by WST-1 assay; assay type: functional; settings: PC-3, 48 h
# [2] = biological target: T1, Signal transducer and activator of transcription 3 (Homo sapiens, UniProt P40763); test: Binding affinity to STAT3 in human DU145 cell lysates assessed as reduction in pronase-induced STAT3 digestion by measuring ratio of STAT3 protein level to GAPDH protein level at 10 uM incubated for 1 hr in absence of pronase by Western blot analysis (reference value: 1)
# T1 sequence (P40763 whole entry): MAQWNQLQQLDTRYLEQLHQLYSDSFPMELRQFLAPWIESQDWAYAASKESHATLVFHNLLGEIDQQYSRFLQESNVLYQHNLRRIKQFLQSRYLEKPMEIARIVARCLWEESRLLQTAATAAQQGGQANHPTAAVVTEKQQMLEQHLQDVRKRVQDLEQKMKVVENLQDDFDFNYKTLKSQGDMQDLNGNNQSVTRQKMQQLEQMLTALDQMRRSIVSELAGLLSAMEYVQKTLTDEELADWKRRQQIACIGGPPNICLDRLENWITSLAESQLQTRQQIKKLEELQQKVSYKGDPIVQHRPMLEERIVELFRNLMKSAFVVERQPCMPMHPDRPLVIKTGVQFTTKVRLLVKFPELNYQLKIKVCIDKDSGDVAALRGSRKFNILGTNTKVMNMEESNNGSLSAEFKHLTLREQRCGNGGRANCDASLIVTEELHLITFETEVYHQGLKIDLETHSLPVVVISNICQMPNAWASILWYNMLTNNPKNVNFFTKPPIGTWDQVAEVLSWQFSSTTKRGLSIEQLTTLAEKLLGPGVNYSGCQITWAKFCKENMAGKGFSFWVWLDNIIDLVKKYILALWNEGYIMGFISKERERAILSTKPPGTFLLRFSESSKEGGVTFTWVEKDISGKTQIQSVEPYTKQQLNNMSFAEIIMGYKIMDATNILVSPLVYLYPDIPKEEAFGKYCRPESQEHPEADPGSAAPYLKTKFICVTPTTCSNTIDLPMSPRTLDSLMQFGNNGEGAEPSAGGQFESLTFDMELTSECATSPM
# [3] = system: DU-145; test: Cell cycle arrest in human DU145 cells assessed as accumulation at S phase at 5 uM after 24 hrs by flow cytometry (reference value: 6.6%); assay type: functional
# [4] = biological target: T1, Signal transducer and activator of transcription 3; test: Binding affinity to STAT3 in human DU145 cell lysates assessed as reduction in pronase-induced STAT3 digestion by measuring ratio of STAT3 protein level to GAPDH protein level at 10 uM incubated for 1 hr followed by 0.05% pronase addition for 10 mins by Western blot analysis (reference value: 1)
# [5] = biological target: T1, Signal transducer and activator of transcription 3; test: Inhibition of STAT3 phosphorylation in human DU145 cells assessed as ratio of phosphorylated STAT3 protein level to GAPDH protein level at 5 uM preincubated with NAC for 1 hr followed by compound addition for 1 hr by Western blot analysis (reference value: 0.3); assay type: cell-based
# [6] = biological target: T1, Signal transducer and activator of transcription 3; test: Inhibition of STAT3 phosphorylation at Tyr705 residues in human DU145 cells assessed as ratio of phosphorylated STAT3 protein level to GAPDH protein level at 5 uM after 0.5 hrs by Western blot analysis (reference value: 1); assay type: cell-based
# [7] = biological target: T1, Signal transducer and activator of transcription 3; test: Inhibition of STAT3 phosphorylation at Tyr705 residues in human DU145 cells assessed as ratio of phosphorylated STAT3 protein level to GAPDH protein level at 5 uM after 1 hr by Western blot analysis (reference value: 1); assay type: cell-based
# [8] = biological target: T1, Signal transducer and activator of transcription 3; test: Inhibition of STAT3-induced ERK1/2 phosphorylation in human DU145 cells assessed as ratio of phosphorylated ERK1/2 protein level to GAPDH protein level at 5 uM after 1 hr by Western blot analysis (reference value: 1); assay type: cell-based
# [9] = system: DU-145; test: Effect on total ERK1/2 protein level in human DU145 cells assessed as ratio of ERK1/2 protein level to GAPDH protein level at 5 uM after 1 hr by Western blot analysis (reference value: 1); assay type: ADME, cell-based; settings: du-145, 1 h
# [10] = biological target: T1, Signal transducer and activator of transcription 3; test: Binding affinity to STAT3 in human DU145 cell lysates assessed as reduction in pronase-induced STAT3 digestion by measuring ratio of STAT3 protein level to GAPDH protein level at 100 uM incubated for 1 hr followed by 0.05% pronase addition for 10 mins by Western blot analysis (reference value: 1)
# [11] = system: DU-145; test: Effect on total STAT3 protein level in human DU145 cells assessed as ratio of STAT3 protein level to GAPDH protein level at 0.5 uM after 24 hrs by Western blot analysis (reference value: 1); assay type: ADME, cell-based; settings: du-145, 24 h
# [12] = biological target: T1, Signal transducer and activator of transcription 3; test: Binding affinity to STAT3 in human DU145 cell lysates assessed as reduction in pronase-induced STAT3 digestion by measuring ratio of STAT3 protein level to GAPDH protein level incubated for 1 hr in absence of pronase by Western blot analysis
# [13] = biological target: T1, Signal transducer and activator of transcription 3; test: Inhibition of STAT3-induced ERK1/2 phosphorylation in human DU145 cells assessed as ratio of phosphorylated ERK1/2 protein level to GAPDH protein level at 5 uM after 0.5 hrs by Western blot analysis (reference value: 1); assay type: cell-based
# [14] = biological target: T1, Signal transducer and activator of transcription 3; test: Inhibition of STAT3 phosphorylation at Tyr705 residues in human DU145 cells assessed as ratio of phosphorylated STAT3 protein level to GAPDH protein level at 5 uM after 24 hrs by Western blot analysis (reference value: 1); assay type: cell-based
# [15] = biological target: T1, Signal transducer and activator of transcription 3; test: Binding affinity to STAT3 in human DU145 cell lysates assessed as reduction in pronase-induced STAT3 digestion by measuring ratio of STAT3 protein level to GAPDH protein level at 50 uM incubated for 1 hr followed by 0.005% pronase addition for 10 mins by Western blot analysis (reference value: 0.9)
# [16] = system: DU-145; test: Effect on total STAT3 protein level in human DU145 cells assessed as ratio of STAT3 protein level to GAPDH protein level at 5 uM after 0.5 hrs by Western blot analysis (reference value: 1); assay type: ADME, cell-based; settings: du-145, 0.5 h
# [17] = system: DU-145; test: Effect on total STAT3 protein level in human DU145 cells assessed as ratio of STAT3 protein level to GAPDH protein level at 5 uM after 1 hr by Western blot analysis (reference value: 1); assay type: ADME, cell-based; settings: du-145, 1 h
# [18] = biological target: T1, Signal transducer and activator of transcription 3; test: Inhibition of STAT3 in human DU145 cells assessed as ratio of cyclin D1 protein level to tubulin protein level at 5 uM after 48 hrs by Western blot analysis (reference value: 1); assay type: cell-based
# [19] = system: DU-145; test: Induction of apoptosis in human DU145 cells at 5 uM after 12 hrs by flow cytometry (reference value: 0.61%); assay type: functional
# [20] = system: LNCaP; test: Growth inhibition of human LNCAP cells after 48 hrs by WST-1 assay; assay type: functional
# [21] = biological target: T1, Signal transducer and activator of transcription 3; test: Inhibition of STAT3 phosphorylation at Tyr705 residues in human DU145 cells assessed as ratio of phosphorylated STAT3 protein level to GAPDH protein level at 0.5 uM after 24 hrs by Western blot analysis (reference value: 1); assay type: cell-based
# [22] = biological target: T1, Signal transducer and activator of transcription 3; test: Inhibition of STAT3 in human DU145 cells assessed as increase in ERK1/2 phosphorylation at 5 uM by Western blot analysis; assay type: cell-based; settings: TDE = time-dependent effect
# [23] = system: DU-145; test: Effect on total ERK1/2 protein level in human DU145 cells assessed as ratio of ERK1/2 protein level to GAPDH protein level at 5 uM after 0.5 hrs by Western blot analysis (reference value: 1); assay type: ADME, cell-based; settings: du-145, 0.5 h
# [24] = system: LNCaP; test: Effect on total STAT3 protein level in human LNCAP cells assessed as ratio of STAT3 protein level to GAPDH protein level at 5 uM after 12 hrs by Western blot analysis (reference value: 1); assay type: ADME, cell-based
# [25] = system: LNCaP; test: Effect on total STAT3 protein level in IL-6 stimulated human LNCAP cells assessed as ratio of STAT3 protein level to GAPDH protein level at 5 uM preincubated for 12 hrs followed by IL-6 stimulation for 30 mins by Western blot analysis (reference value: 1.3); assay type: ADME, cell-based; settings: 0.5 h
# [26] = system: DU-145; test: Cell cycle arrest in human DU145 cells assessed as accumulation at G0/G1 phase at 5 uM after 48 hrs by flow cytometry (reference value: 24.07%); assay type: functional
# [27] = system: DU-145; test: Cell cycle arrest in human DU145 cells assessed as accumulation at G0/G1 phase at 5 uM after 12 hrs by flow cytometry (reference value: 24.07%); assay type: functional
# [28] = system: DU-145; test: Cell cycle arrest in human DU145 cells assessed as accumulation at G2/M phase at 5 uM after 48 hrs by flow cytometry (reference value: 18.12%); assay type: functional
# [29] = system: DU-145; test: Effect on total ERK1/2 protein level in human DU145 cells assessed as ratio of ERK1/2 protein level to GAPDH protein level at 5 uM after 6 hrs by Western blot analysis (reference value: 1); assay type: ADME, cell-based; settings: du-145, 6 h
compound,measurement,setting,value
C=C(C)C(=O)N(Cc1ccc(Br)cc1)C(=O)/C=C/c1cc(OC)c(OC)c(OC)c1,GI50,[1],> 10 µM
same,Ratio,[2],1.1
same,Activity,[3],8.27%
same,Ratio,[4],2.1
same,Ratio,[5],1.2
same,Ratio,[6],0.5
same,Ratio,[7],0.3
same,Ratio,[8],1.8
same,Ratio,[9],1.1
same,Ratio,[10],2.3
same,Ratio,[11],1.1
same,Activity,[12],Dose-dependent effect
same,Ratio,[13],1.6
same,Ratio,[14],0.3
same,Ratio,[15],0.8
same,Ratio,[16],1
same,Ratio,[17],1
same,Ratio,[18],0.9
same,Activity,[19],0.65%
same,GI50,[20],7.7 µM
same,Ratio,[21],0.7
same,inhibition,[22],Tde
same,Ratio,[23],1.1
same,Ratio,[24],1.2
same,Ratio,[25],1.1
same,Activity,[26],26.59%
same,Activity,[27],38.15%
same,Activity,[28],18.95%
same,Ratio,[29],1
